According to patent US20150352108A1, “AMINO-PYRIMIDINE COMPOUNDS AS INHIBITORS OF TBK1 AND/OR IKK EPSILON” (Alzheimer's Institute of America, priority 2009, published 2015):

The compounds below were run against T1, IKKε (Homo sapiens, UniProt Q14164) (assay: In-vitro IKKε kinase assay ([γ33]ATP filter-plate)). Settings: text bins; read-out: IC50 for inhibition of the kinase activity of IKKε.
T1 construct: His-tag; made in house; host or cells: Sf9 insect cells
T1 sequence (Q14164 1-716): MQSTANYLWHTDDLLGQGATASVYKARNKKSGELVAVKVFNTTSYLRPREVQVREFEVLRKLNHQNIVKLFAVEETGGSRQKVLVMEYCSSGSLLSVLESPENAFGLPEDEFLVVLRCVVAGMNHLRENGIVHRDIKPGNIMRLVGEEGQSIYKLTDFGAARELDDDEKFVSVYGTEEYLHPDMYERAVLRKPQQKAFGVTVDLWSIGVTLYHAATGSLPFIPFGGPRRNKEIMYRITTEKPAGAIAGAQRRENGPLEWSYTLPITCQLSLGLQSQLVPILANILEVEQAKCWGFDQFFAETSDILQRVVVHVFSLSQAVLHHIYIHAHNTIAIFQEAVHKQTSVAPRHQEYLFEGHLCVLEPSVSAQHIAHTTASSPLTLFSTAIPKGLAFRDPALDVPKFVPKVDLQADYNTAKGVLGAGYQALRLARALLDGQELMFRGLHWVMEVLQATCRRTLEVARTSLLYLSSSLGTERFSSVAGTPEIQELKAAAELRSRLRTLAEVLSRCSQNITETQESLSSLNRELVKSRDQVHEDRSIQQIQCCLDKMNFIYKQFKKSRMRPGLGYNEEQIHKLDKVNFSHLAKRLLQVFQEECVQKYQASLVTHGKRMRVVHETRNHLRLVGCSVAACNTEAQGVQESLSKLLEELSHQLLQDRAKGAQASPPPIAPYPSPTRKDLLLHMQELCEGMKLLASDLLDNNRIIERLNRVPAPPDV
Type: biochemical
Description: IKKε enzyme was produced as a His-tag fusion in Sf9 cells and used at a final concentration of […]. TBK1 enzyme was produced as a His-tag fusion in Sf9 cells and used at a final concentration of 0.1 μg/ml. Kinase reactions were carried out in reaction buffer using myelin basic protein (Millipore, Ballerica, Mass.) or casein (Sigma, St. Louis, Mo.) as substrate at an ATP concentration equal to twice the Km,ATP value for each enzyme, corresponding to 32 μM ATP for IKKε and 60 μM ATP for TBK1, in the presence of 0.3 μCi [γ^33]ATP (PerkinElmer, Waltham, Mass.). Final enzyme concentrations were 0.1 or 0.015 μg/ml (IKKε) and 0.1 or 0.02 μg/ml (TBK1), representing “normal” and “sensitized” assay conditions respectively. Test compounds (or DMSO solvent as a control) were added prior to initiation of the reactions. Reactions were terminated after 30-45 minutes by adding 3% phosphoric acid. Terminated reactions were transferred to P-81 cellulose phosphate filterplates (Whatman, Inc., Piscataway, N.J.) and washed with 1% phosphoric acid on a vacuum apparatus. After air drying, scintillant (PerkinElmer, Waltham, Mass.) was added and the plates were read on a PerkinElmer TopCount NXT instrument. Counts were normalized to DMSO controls after background subtraction.

IC50 | SMILES
50 to 500 nM | CC(=O)Nc1cccc(Nc2nccc(-c3cccc(C#N)c3)n2)c1 [Example 277, N-(3-{[4-(3-Cyanophenyl)pyrimidin-2-yl]amino}phenyl) acetamide]
50 to 500 nM | COc1cc(NC(=O)c2ccncc2)cc(Nc2nccc(-c3ccc(OC)c(C#N)c3)n2)c1 [compound 357]
5 to 50 nM | N#Cc1cc(-c2ccnc(Nc3ccc(N4CCOCC4)cc3)n2)ccc1OC1CCN(C(=O)[C@@H](O)C(F)(F)F)CC1 [Example 113, 5-(2-{[4-(morpholin-4-yl)phenyl]amino}pyrimidin-4-yl)-2-({1-[(2R)-3,3,3-trifluoro-2-hydroxypropanoyl]piperidin-4-yl}oxy)benzonitrile]
5 to 50 nM | N#Cc1cc(-c2ccnc(Nc3ccc(N4CCOCC4)cc3)n2)ccc1OC1CCN(C(=O)C(F)(F)F)CC1 [Example 247, 5-(2-{[4-(Morpholin-4-yl)phenyl]amino}pyrimidin-4-yl)-2-{[1-(trifluoroacetyl)piperidin-4-yl]oxy}benzonitrile]
5 to 50 nM | CC(=O)N1CCC(Oc2ccc(-c3ccnc(Nc4ccc(N5CCOCC5)cc4)n3)cc2C#N)C1 (stereo not drawn) [Example 195, 2-[(1-Acetylpyrrolidin-3-yl)oxy]-5-(2-{[4-(morpholin-4-yl)phenyl]amino}pyrimidin-4-yl)benzonitrile]
5 to 50 nM | CC(C)(C)C(=O)Nc1ccc(-c2ccnc(Nc3ccc(N4CCOCC4)cc3)n2)cc1C#N [Example 196, N-[2-cyano-4-(2-{[4-(morpholin-4-yl)phenyl]amino}pyrimidin-4-yl)phenyl]-2,2-dimethylpropanamide]
50 to 500 nM | CC(C)C(=O)NCCOc1ccc(-c2ccnc(Nc3ccc(N4CCOCC4)cc3)n2)cc1C#N [Example 153, N-{2-[2-cyano-4-(2-{[4-(morpholin-4-yl)phenyl]amino}pyrimidin-4-yl)phenoxy]ethyl}-2-methylpropanamide]
50 to 500 nM | N#Cc1cccc(-c2ccnc(Nc3ccc(OCC(=O)N4CCOCC4)cc3)n2)c1 [compound 386, 3-[2-({4-[2-(Morpholin-4-yl)-2-oxoethoxy]phenyl}amino)pyrimidin-4-yl]benzonitrile]
50 to 500 nM | N#Cc1cccc(-c2ccnc(Nc3ccc4c(c3)OCCO4)n2)c1 [Example 232, 3-[2-(2,3-Dihydro-1,4-benzodioxin-6-ylamino)pyrimidin-4-yl]benzonitrile]
5 to 50 nM | CC(C)C(=O)Nc1ccc(-c2ccnc(Nc3ccc(N4CCOCC4)cc3)n2)cc1C#N [Example 267, N-[2-Cyano-4-(2-{[4-(morpholin-4-yl)phenyl]amino}pyrimidin-4-yl)phenyl]-2-methylpropanamide]
50 to 500 nM | C[C@@H](O)C(=O)N1CCC(Oc2ccc(-c3ccnc(Nc4ccc(N5CCOCC5)cc4)n3)cc2C#N)C1 (stereo partly drawn) [Example 142, 2-({1-[(2R)-2-hydroxypropanoyl]pyrrolidin-3-yl}oxy)-5-(2-{[4-(morpholin-4-yl)phenyl]amino}pyrimidin-4-yl)benzonitrile]
5 to 50 nM | CC(C)NC(=O)NCCOc1ccc(-c2ccnc(Nc3ccc(N4CCOCC4)cc3)n2)cc1C#N [Example 47, 1-{2-[2-cyano-4-(2-{[4-(morpholin-4-yl)phenyl]amino}pyrimidin-4-yl)phenoxy]ethyl}-3-propan-2-ylurea]
5 to 50 nM | N#Cc1cc(-c2ccnc(Nc3ccc(N4CCOCC4)cc3)n2)ccc1NC(=O)NC1CCOCC1 [Example 92, 1-[2-cyano-4-(2-{[4-(morpholin-4-yl)phenyl]amino}pyrimidin-4-yl)phenyl]-3-(tetrahydro-2H-pyran-4-yl)urea]
5 to 50 nM | N#Cc1cc(-c2ccnc(Nc3ccc(N4CCOCC4)cc3)n2)ccc1NC(=O)C1CCCC1 [Example 56, N-[2-cyano-4-(2-{[4-(morpholin-4-yl)phenyl]amino}pyrimidin-4-yl)phenyl] cyclopentane-carboxamide]
50 to 500 nM | N#Cc1cc(-c2ccnc(Nc3ccc(N4CCOCC4)cc3)n2)ccc1OC1CCN(C(=O)C2CC2)C1 (stereo not drawn) [Example 151, 2-{[1-(cyclopropylcarbonyl)pyrrolidin-3-yl]oxy}-5-(2-{[4-(morpholin-4-yl)phenyl]amino}pyrimidin-4-yl)benzonitrile]
5 to 50 nM | CCN(CC)CCc1ccc(Nc2nccc(-c3ccc(NC(=O)C(C)C)c(C#N)c3)n2)cc1 [compound 454, N-{2-cyano-4-[2-({4-[2-(diethylamino)ethyl]phenyl}amino)pyrimidin-4-yl]phenyl}-2-methylpropanamide]
5 to 50 nM | CO[C@@H](C)C(=O)N1CCC(Oc2ccc(-c3ccnc(Nc4ccc(N5CCOCC5)cc4)n3)cc2C#N)CC1 [Example 99]
50 to 500 nM | CC(C)COC(=O)Nc1ccc(-c2ccnc(Nc3ccc(N4CCOCC4)cc3)n2)cc1C#N [Example 180, 2-methylpropyl [2-cyano-4-(2-{[4-(morpholin-4-yl)phenyl]amino}pyrimidin-4-yl)phenyl]carbamate]
5 to 50 nM | CC(C)C(=O)Nc1ccc(-c2ccnc(Nc3ccc(OCCCN4CCOCC4)cc3)n2)cc1C#N [compound 430, N-{2-cyano-4-[2-({4-[3-(morpholin-4-yl)propoxy]phenyl}amino)pyrimidin-4-yl]phenyl}-2-methylpropanamide]
50 to 500 nM | COc1ccc(-c2ccnc(Nc3cccc(NC(=O)NC4CCCC4)c3)n2)cc1C#N [compound 348, 1-(3-{[4-(3-Cyano-4-methoxyphenyl)pyrimidin-2-yl]amino}phenyl)-3-cyclopentylurea]
5 to 50 nM | CC(C)C(=O)Nc1ccc(-c2ccnc(Nc3ccc(CCNCCO)cc3)n2)cc1C#N [compound 455, N-(2-cyano-4-{2-[(4-{2-[(2-hydroxyethyl)amino]ethyl}phenyl)amino]pyrimidin-4-yl}phenyl)-2-methylpropanamide]
50 to 500 nM | COc1cc(NC(=O)NCCN(C)C)cc(Nc2nccc(-c3ccc(OC)c(C#N)c3)n2)c1 [compound 360, 1-(3-{[4-(3-Cyano-4-methoxyphenyl)pyrimidin-2-yl]amino}-5-methoxyphenyl)-3-[2-(dimethylamino)ethyl]urea]
50 to 500 nM | N#Cc1cc(-c2ccnc(Nc3ccc(N4CCOCC4)cc3)n2)ccc1OC1CCN(CC(=O)N2CCOCC2)CC1 [Example 234, 2-({1-[2-(morpholin-4-yl)-2-oxoethyl]piperidin-4-yl}oxy)-5-(2-{[4-(morpholin-4-yl)phenyl]amino}pyrimidin-4-yl)benzonitrile]
50 to 500 nM | N#Cc1cc(-c2ccnc(Nc3ccc(N4CCOCC4)cc3)n2)ccc1NC(=O)C1CCOCC1 [Example 97, N-[2-cyano-4-(2-{[4-(morpholin-4-yl)phenyl]amino}pyrimidin-4-yl)phenyl]tetrahydro-2H-pyran-4-carboxamide]
50 to 500 nM | COc1ccc(-c2ccnc(Nc3ccc(NC(=O)NCCCO)cc3)n2)cc1C#N [Example 7, 1-(4-{[4-(3-Cyano-4-methoxyphenyl)pyrimidin-2-yl]amino}phenyl)-3-(3-hydroxypropyl)urea]
5 to 50 nM | CC(C)C(=O)Nc1ccc(-c2ccnc(Nc3ccc(CCO)cc3)n2)cc1C#N [compound 464, N-[2-cyano-4-(2-{[4-(2-hydroxyethyl)phenyl]amino}pyrimidin-4-yl)phenyl]-2-methylpropanamide]
5 to 50 nM | COc1ccc(-c2ccnc(Nc3cccc(N)c3)n2)cc1C#N [compound 321, 5-{2-[(3-Aminophenyl)amino]pyrimidin-4-yl}-2-methoxybenzonitrile]
50 to 500 nM | CC(C)(O)C(=O)N1CCC(Oc2ccc(-c3ccnc(Nc4ccc(N5CCOCC5)cc4)n3)cc2C#N)CC1 [Example 74, 2-{[1-(2-Hydroxy-2-methylpropanoyl)piperidin-4-yl]oxy}-5-(2-{[4-(morpholin-4-yl)phenyl]amino}pyrimidin-4-yl)benzonitrile]
50 to 500 nM | COc1cc(Nc2nccc(-c3ccc(OC4CCN(C(=O)CO)C4)c(C#N)c3)n2)ccc1N1CCC(N2CCN(C)CC2)CC1 (stereo not drawn) [compound 513, 2-{[1-(hydroxyacetyl)pyrrolidin-3-yl]oxy}-5-[2-({3-methoxy-4-[4-(4-methylpiperazin-1-yl)piperidin-1-yl]phenyl}amino)pyrimidin-4-yl]benzonitrile]
< 5 nM | CC(=O)NS(=O)(=O)c1ccc(Nc2nccc(-c3ccc(OC4CCOCC4)c(C#N)c3)n2)cc1 [compound 630]
